Reference: ChEMBL document CHEMBL1134339, “New 1-aryl-3-(4-arylpiperazin-1-yl)propane derivatives, with dual action at 5-HT1A serotonin receptors and serotonin transporter, as a new class of antidepressants” (J Med Chem, 2001)
pKi: −log10 of the molar value.

Each compound was assayed against T1, 5-hydroxytryptamine receptor 1A (Rattus norvegicus, UniProt P19327) (assay: Binding affinity to 5-hydroxytryptamine 1A receptor (5-HT 1A receptor, serotonin receptor) from rat cortex using [3H]8-OH-DPAT as radioligand). Details: read-out: Ki.
T1 sequence (P19327 whole entry): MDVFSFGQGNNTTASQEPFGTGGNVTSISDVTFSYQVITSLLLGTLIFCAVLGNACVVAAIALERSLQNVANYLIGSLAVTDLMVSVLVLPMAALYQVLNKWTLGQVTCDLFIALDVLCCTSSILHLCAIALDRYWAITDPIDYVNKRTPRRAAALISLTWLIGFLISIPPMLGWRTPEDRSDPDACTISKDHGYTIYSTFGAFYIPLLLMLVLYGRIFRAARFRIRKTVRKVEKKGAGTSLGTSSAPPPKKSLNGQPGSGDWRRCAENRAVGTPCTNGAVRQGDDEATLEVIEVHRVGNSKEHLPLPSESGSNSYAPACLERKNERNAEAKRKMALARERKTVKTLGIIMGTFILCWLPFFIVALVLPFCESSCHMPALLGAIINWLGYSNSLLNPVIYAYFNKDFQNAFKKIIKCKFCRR

| Structure (SMILES) | pKi |
| --- | --- |
| COc1ccc(C(CCN2CCN(c3ccccc3OC)CC2)Oc2ccc(C(F)(F)F)cc2)cc1 (stereo not drawn) | 6.00 |
| O=C(CCN1CCN(c2ccc(Cl)cc2)CC1)c1csc2ccccc12 | < 5.30 |
| FC(F)(F)c1ccc(OC(CCN2CCN(c3ccc(Cl)cc3)CC2)c2ccccc2)cc1 (stereo not drawn) | < 5.30 |
| COc1ccccc1N1CCN(CCC(=O)c2ccc([N+](=O)[O-])cc2)CC1 | 7.30 |
| COc1ccc(N2CCN(CCC(Oc3ccc(C(F)(F)F)cc3)c3ccccc3)CC2)cc1 (stereo not drawn) | < 5.30 |
| OC(CCN1CCN(c2ccc(Cl)cc2)CC1)c1csc2ccccc12 (stereo not drawn) | 5.30 |
| O/N=C(\CCN1CCN(c2ccc(Cl)cc2)CC1)c1ccccc1 | < 5.30 |
| OC(CCN1CCN(c2ccc(Cl)cc2)CC1)c1ccccc1 (stereo not drawn) | 6.10 |
| OC(CCN1CCN(c2ccc(Cl)cc2)CC1)c1ccc2ccccc2c1 (stereo not drawn) | < 5.30 |
| O=C(CCN1CCN(c2ccc(Cl)cc2)CC1)c1cccs1 | < 5.30 |
| COc1ccccc1N1CCN(CCC(=O)c2ccc(C)s2)CC1 | 7.76 |
| O=C(CCN1CCN(c2ccc(Cl)cc2)CC1)c1ccc2ccccc2c1 | < 5.30 |
| COc1ccccc1N1CCN(CCC(Oc2ccc3c(c2)OCO3)c2ccccc2)CC1 (stereo not drawn) | 7.70 |
| COc1ccccc1N1CCN(CC/C(=N\O)c2cc(C)sc2C)CC1 | 7.07 |
| COc1ccccc1N1CCN(CCC(Oc2ccc(C(F)(F)F)cc2)c2ccc(-c3ccccc3)cc2)CC1 (stereo not drawn) | < 5.30 |
| Cc1cc(C(=O)CCN2CCN(c3cccc4ccccc34)CC2)c(C)s1 | 7.00 |
| O=C(CCN1CCN(c2ccccc2Cl)CC1)c1ccsc1 | 6.70 |

| Structure (SMILES) | pKi |
| --- | --- |
| COc1cc(F)ccc1N1CCN(CCC(O)c2csc3ccccc23)CC1 (stereo not drawn) | 6.30 |
| COc1cc(F)ccc1N1CCN(CCC(=O)c2cc(C)sc2C)CC1 | 7.89 |
| COc1ccccc1N1CCN(CCC(O)c2ccc([N+](=O)[O-])cc2)CC1 (stereo not drawn) | 8.00 |
| O=C(CCN1CCN(c2ccc(F)cc2)CC1)c1ccccc1 | 6.10 |
| O=C(CCN1CCN(c2ccc([N+](=O)[O-])cc2)CC1)c1ccccc1 | < 5.30 |
| O=C(CCN1CCN(c2ccccc2O)CC1)c1ccc2ccccc2c1 | 6.00 |
| FC(F)(F)c1ccc(OC(CCN2CCN(c3ccccc3Cl)CC2)c2ccccc2)cc1 (stereo not drawn) | < 5.30 |
| COc1cc(F)ccc1N1CCN(CCC(=O)c2csc3ccccc23)CC1 | 6.30 |
| OC(CCN1CCN(c2ccccc2Cl)CC1)c1ccsc1 (stereo not drawn) | 6.70 |
| COc1ccc(N2CCN(CCC(=O)c3ccccc3)CC2)cc1 | 5.30 |
| O=C(CCN1CCN(c2ccc(Cl)cc2)CC1)c1ccccc1 | 6.10 |
| COc1ccccc1N1CCN(CC/C(=N/O)c2ccc(C)s2)CC1 | 7.12 |
| COc1ccc(OC(CCN2CCN(c3ccc(Cl)cc3)CC2)c2ccccc2)cc1 (stereo not drawn) | 5.84 |
| Fc1ccc(N2CCN(CCC(Oc3ccc(C(F)(F)F)cc3)c3ccccc3)CC2)cc1 (stereo not drawn) | < 5.30 |
| COc1ccccc1N1CCN(CCC(O)c2ccsc2)CC1 (stereo not drawn) | 7.30 |
| OC(CCN1CCN(c2ccc(Cl)cc2)CC1)c1cccs1 (stereo not drawn) | < 5.30 |
| COc1ccccc1N1CCN(CCC(=O)c2ccc3ccccc3c2)CC1 | 6.60 |

These compounds were tested against Sodium-dependent serotonin transporter (Rattus norvegicus, UniProt P31652) (assay: Binding affinity towards Serotonin transporter from rat cortex measured using [3H]paroxetine). Details: read-out: Ki.
Sodium-dependent serotonin transporter, sequence (P31652 whole entry): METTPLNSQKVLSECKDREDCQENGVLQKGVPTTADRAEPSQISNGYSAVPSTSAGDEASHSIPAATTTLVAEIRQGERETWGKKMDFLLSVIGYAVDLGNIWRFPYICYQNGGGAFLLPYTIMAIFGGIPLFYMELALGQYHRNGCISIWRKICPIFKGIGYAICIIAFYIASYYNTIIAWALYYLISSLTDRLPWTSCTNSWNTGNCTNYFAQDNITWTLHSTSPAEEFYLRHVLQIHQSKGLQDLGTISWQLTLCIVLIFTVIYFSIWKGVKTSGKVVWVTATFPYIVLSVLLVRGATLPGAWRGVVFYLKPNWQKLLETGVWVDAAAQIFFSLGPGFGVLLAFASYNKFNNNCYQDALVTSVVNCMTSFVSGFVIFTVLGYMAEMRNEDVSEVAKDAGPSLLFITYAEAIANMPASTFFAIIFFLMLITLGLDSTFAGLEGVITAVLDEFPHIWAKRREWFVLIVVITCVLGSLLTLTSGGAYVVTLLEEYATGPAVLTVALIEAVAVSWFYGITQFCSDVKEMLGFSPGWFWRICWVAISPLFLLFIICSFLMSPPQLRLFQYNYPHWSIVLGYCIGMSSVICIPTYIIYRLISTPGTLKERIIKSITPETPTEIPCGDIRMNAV

| Structure (SMILES) | pKi |
| --- | --- |
| COc1ccccc1N1CCN(CCC(=O)c2ccccc2)CC1 | < 5.30 |
| COc1ccc(C(CCN2CCN(c3ccccc3OC)CC2)Oc2ccc(C(F)(F)F)cc2)cc1 (stereo not drawn) | 6.19 |
| O=C(CCN1CCN(c2ccc(Cl)cc2)CC1)c1csc2ccccc12 | 5.30 |
| FC(F)(F)c1ccc(OC(CCN2CCN(c3ccc(Cl)cc3)CC2)c2ccccc2)cc1 (stereo not drawn) | 6.46 |
| COc1ccc(C(=O)CCN2CCN(c3ccccc3OC)CC2)cc1 | < 5.30 |
| COc1ccccc1N1CCN(CCC(=O)c2ccc([N+](=O)[O-])cc2)CC1 | < 5.30 |
| COc1ccc(N2CCN(CCC(Oc3ccc(C(F)(F)F)cc3)c3ccccc3)CC2)cc1 (stereo not drawn) | < 5.30 |
| OC(CCN1CCN(c2ccc(Cl)cc2)CC1)c1csc2ccccc12 (stereo not drawn) | 7.30 |
| O/N=C(\CCN1CCN(c2ccc(Cl)cc2)CC1)c1ccccc1 | 5.30 |
| OC(CCN1CCN(c2ccc(Cl)cc2)CC1)c1ccccc1 (stereo not drawn) | 6.46 |
| OC(CCN1CCN(c2ccc(Cl)cc2)CC1)c1ccc2ccccc2c1 (stereo not drawn) | 8.00 |
| O=C(CCN1CCN(c2ccc(Cl)cc2)CC1)c1cccs1 | 7.22 |
| COc1ccccc1N1CCN(CCC(=O)c2ccc(C)s2)CC1 | < 5.30 |
| O=C(CCN1CCN(c2ccc(Cl)cc2)CC1)c1ccc2ccccc2c1 | 6.62 |
| COc1ccccc1N1CCN(CCC(Oc2ccc3c(c2)OCO3)c2ccccc2)CC1 (stereo not drawn) | 6.30 |
| O=C(CCN1CCN(c2ccc(Cl)cc2)CC1)c1ccsc1 | 6.66 |
| COc1ccccc1N1CCN(CC/C(=N\O)c2cc(C)sc2C)CC1 | 5.30 |
| COc1ccccc1N1CCN(CCC(Oc2ccc(C(F)(F)F)cc2)c2ccc(-c3ccccc3)cc2)CC1 (stereo not drawn) | < 5.30 |
| Cc1cc(C(=O)CCN2CCN(c3cccc4ccccc34)CC2)c(C)s1 | 6.43 |
| FC(F)(F)c1ccc(OC(CCN2CCN(c3ccccn3)CC2)c2ccccc2)cc1 (stereo not drawn) | 5.82 |

| Structure (SMILES) | pKi |
| --- | --- |
| O=C(CCN1CCN(c2ccccc2Cl)CC1)c1ccsc1 | < 5.30 |
| COc1cc(F)ccc1N1CCN(CCC(O)c2csc3ccccc23)CC1 (stereo not drawn) | 7.92 |
| COc1cc(F)ccc1N1CCN(CCC(=O)c2cc(C)sc2C)CC1 | 6.12 |
| COc1ccccc1N1CCN(CCC(O)c2ccc([N+](=O)[O-])cc2)CC1 (stereo not drawn) | 5.60 |
| O=C(CCN1CCN(c2ccc(F)cc2)CC1)c1ccccc1 | < 5.30 |
| O=C(CCN1CCN(c2ccc([N+](=O)[O-])cc2)CC1)c1ccccc1 | < 5.30 |
| O=C(CCN1CCN(c2ccccc2O)CC1)c1ccc2ccccc2c1 | 5.60 |
| FC(F)(F)c1ccc(OC(CCN2CCN(c3ccccc3Cl)CC2)c2ccccc2)cc1 (stereo not drawn) | < 5.30 |
| COc1cc(F)ccc1N1CCN(CCC(=O)c2csc3ccccc23)CC1 | 6.30 |
| OC(CCN1CCN(c2ccccc2Cl)CC1)c1ccsc1 (stereo not drawn) | < 5.30 |
| COc1ccc(N2CCN(CCC(=O)c3ccccc3)CC2)cc1 | < 5.30 |
| O=C(CCN1CCN(c2ccc(Cl)cc2)CC1)c1ccccc1 | 6.52 |
| OC(CCN1CCN(c2ccc(Cl)cc2)CC1)c1ccsc1 (stereo not drawn) | 6.70 |
| COc1ccccc1N1CCN(CC/C(=N/O)c2ccc(C)s2)CC1 | 5.30 |
| COc1ccc(OC(CCN2CCN(c3ccc(Cl)cc3)CC2)c2ccccc2)cc1 (stereo not drawn) | 6.30 |
| Fc1ccc(N2CCN(CCC(Oc3ccc(C(F)(F)F)cc3)c3ccccc3)CC2)cc1 (stereo not drawn) | 6.30 |
| COc1ccccc1N1CCN(CCC(O)c2ccsc2)CC1 (stereo not drawn) | 6.41 |
| OC(CCN1CCN(c2ccc(Cl)cc2)CC1)c1cccs1 (stereo not drawn) | 6.54 |
| COc1ccccc1N1CCN(CCC(=O)c2ccc3ccccc3c2)CC1 | 6.00 |
